What was measured:
[1] = tested on: sunburn cells (SBC) in human skin explants; assay: Sunburn cells (SBC) in human skin explants after UVB; type: cell-based; details: for % SBC (Sun Burn Cells): after UVB 2 J/cm^2
Procedure: With a view to determining the action of teprenone as per the invention, the effect of the active substance on the presence of sunburn cells (SBC) and apoptotic cell in human skin explants was investigated.
Human skin explants are treated in a way similar to the preceding experiment of description of the protective role of the teprenone on the catalase activity (obtained from a patient having undergone plastic surgery, cultured with or without teprenone for 48 hours then exposed to UV B radiation (2 J/cm^2). After irradiation, the explants were again cultured in fresh medium with or without teprenone for 24 hours).
SBC were evidenced on paraffin-wax-embedded skin explant sections by staining with […]. SBC, apoptotic keratinocytes with pyknotic nuclei and eosinophilic cytoplasm, are characteristic of mammalian epidermis exposed to UV B radiation.

VEGF = VEGF in supernatant of γ-irradiated NHEK cells (ELISA); type: cell-based, human; details: for decrease of VEGF: vs irradiated control; for expression VEGF: γ-irradiation 5 Gγ, 4 days
Procedure: In order to determine the action of teprenone as per the invention, the effect of GGA on the IL8 and VEGF expression was investigated in the supernatants of irradiated (with 5 Gy) NHEK cells. After γ-irradiation, NHEK cells are treated during 4 days with or without GGA at differents concentrations. The amount of IL8 and VEGF present in the cells supernatant is determined with ELISA method.

[2] = tested on: Normal human fibroblasts (FHN); assay: Replicative capacity of serially sub-cultured fibroblasts; type: cell-based
From the text: Normal human fibroblasts are able to divide a limited number of times: according to the literature, 30 times approximately. Progressively, the cells change morphology and become less and less suited to the mitosis: time between 2 mitoses lengthens, the cellular metabolism is very slowed down, the cells are known as senescent.
Normal human fibroblasts (FHN) are cultivated until the “12th cycle” in order to begin the tests with cells already part-time from the duration life (=12 cycles of replication on 30 cycles), they are then separate in 3 batches: The batch control, the batch treated daily by 1 μM of teprenone and the batch daily treated with 3 μM of teprenone.
Each plate contains ˜50 000 cells and the cells cultivated in medium DMEM, until confluency or until obtaining enough cells for the taking away of 50 000 cells necessary to the following cycle. At each time the cells are collected by trypsinisation, are counted, and aliquot of 50 000 cells seeded for the following cycle. This cycle is repeated until it is no more possible to obtain cellular multiplication.

catalase = assay: Catalase activity in human skin explants after UVB (Clairborne-Aebi method); type: cell-based; details: for protective effect on enzymatic activity of catalase: vs UVB; for catalase activity: after UVB 2 J/cm2
Procedure: Human skin explants obtained from a patient having undergone plastic surgery were cultured with or without teprenone or Trolox (positive control) for 48 hours then exposed to UV B radiation (2 J/cm^2). After irradiation, the explants were again cultured in fresh medium with or without teprenone or Trolox for 24 hours. Similars explants were also used in immunolabeling tests on heat shock proteins (HSP) and in the apoptosis study.
Catalase anti-oxidant activity was determined by the Clairborne-Aebi method. Hydrogen peroxide (H2O2) consumption is directly proportional to catalase activity. The consumption was determined by spectrophotometry at 240 nm

Hsp27 = Hsp27 immunolabeling in UVB-irradiated human skin explants; type: cell-based; details: for Number of Hsp27 positive cells/cm: UVB 2 J/cm2, n = 3
From the text: Heat Schock proteins (Hsp) are cellular protective molecules which contribute to the correct proteinic folding, thus preserving the protein activity. Hsp 27 is a protective chaperone protein very present in the keratinocytes at the basal state. In situation of UV stress, cell increases its rate of protection and Hsp 27 is strongly overexpressed. Hsp70 is a chaperone protein less expressed in a basal state but induced in response to the UV, thermics, mechanics or infectious stress.
Human skin explants are treated in a similar way to the previous experiment (protection on the catalase activity): taken from a plastic surgery, they are cultivated for 48 h in the presence or not, for control, of teprenone (or trolox) at various concentrations, then irradiated or not using a source UVB (2 J/cm2). After irradiation skin explants were post-treated (24 h) or not with teprenone (or trolox) at the same concentrations.
Explants were embedded in OCT, sectioned using a freezing microtome, and slide mounted. The mounted specimens were immunolabeled with anti-human Hsp antibody.

[3] = tested on: Normal human fibroblasts (NHF); assay: Replicative senescence: variation of division number; type: cell-based; details: 1 and 3 μM; long-term contact; 64th day to 95th day
Procedure: Replicative senescence reflects the aging of cells in cultures as they are serially sub-cultured. Normal human fibroblasts (NHF) were cultured in the absence or presence of 1 and 3 μM teprenone. At regular intervals, without awaiting confluence, the cells were counted, observed and sub-cultured at the same rate.

NHEK = NHEK cell re-colonization after scraping and irradiation; type: cell-based, human; details: 3 · 10^−5%
Procedure: NHEK were inoculated into Labtech microplates and cultured to post-confluence with or without teprenone. The cultures were then mechanically scraped and exposed to radiation at a dose level of 0, 5 or 10 Gy. The percentage area re-colonized post-irradiation was determined.

CC(=O)CCC=C(C)CCC=C(C)CCC=C(C)CCC=C(C)C [Teprenone, 6,10,14,18-tetramethyl-5,9,13-nonadecatetren-2-one]
% SBC (Sun Burn Cells) ([1]; 0.05 mM): 45% | % SBC (Sun Burn Cells) ([1]; 0.1 mM): 27% | diminution of SBC ([1]; after UVB, vs irradiated): −66% | decrease of VEGF (VEGF; 1 · 10^−4%): −47% | decrease of VEGF (VEGF; 3 · 10^−5%): −30% | expression VEGF (VEGF; 1 · 10^−4%): 3 pg/10⁵ cells | expression VEGF (VEGF; 3 · 10^−5%): 3.5 pg/10⁵ cells | cycle until which the fibroblasts remained more active ([2]; 1 μM): 22 | entry into marked senescence, later than the controls ([2]; 1 μM): 44 days | Nb cells (×10^3) ([2]; 1 μM, cycle 13 (7 d)): 204 ×10^3 | Nb cells (×10^3) ([2]; 1 μM, cycle 14 (8 d)): 214 ×10^3 | Nb cells (×10^3) ([2]; 1 μM, cycle 15 (11 d)): 199 ×10^3 | Nb cells (×10^3) ([2]; 1 μM, cycle 16 (14 d)): 186 ×10^3 | Nb cells (×10^3) ([2]; 1 μM, cycle 17 (13 d)): 164 ×10^3 | Nb cells (×10^3) ([2]; 1 μM, cycle 18 (18 d)): 197 ×10^3 | Nb cells (×10^3) ([2]; 1 μM, cycle 19 (17 ds)): 185 ×10^3 | Nb cells (×10^3) ([2]; 1 μM, cycle 20 (14 d)): 124 ×10^3 | Replicative capac vs control ([2]; 1 μM, cycle 20 (14 d)): +13 | Nb cells (×10^3) ([2]; 1 μM, cycle 21 (22 d)): 130 ×10^3 | Replicative capac vs control ([2]; 1 μM, cycle 21 (22 d)): +38 | Nb cells (×10^3) ([2]; 1 μM, cycle 22 (20 d)): 146 ×10^3 | Replicative capac vs control ([2]; 1 μM, cycle 22 (20 d)): +117 | Nb cells (×10^3) ([2]; 1 μM, cycle 23 (36 d)): 105 ×10^3 | Replicative capac vs control ([2]; 1 μM, cycle 23 (36 d)): +25 | Nb cells (×10^3) ([2]; 1 μM, cycle 24 (28 d)): 66 ×10^3 | Replicative capac vs control ([2]; 1 μM, cycle 24 (28 d)): ns | Nb cells (×10^3) ([2]; 1 μM, cycle 25 (77 d)): 59 ×10^3 | Replicative capac vs control ([2]; 1 μM, cycle 25 (77 d)): ns | cycle until which the fibroblasts retained their replicative potential ([2]; 3 μM): 24 | fibroblast lifetime extended with no impairment of replicative capacity ([2]; 3 μM): 100 days | replicative potential retained, later than the controls ([2]; 3 μM): 100 days | activity of treated cells vs control cells after replicative potential began to subside ([2]; 3 μM, after cycle 24): almost two-fold more active than the control cells | Nb cells (×10^3) ([2]; 3 μM, cycle 13 (7 d)): 213 ×10^3 | Nb cells (×10^3) ([2]; 3 μM, cycle 14 (8 d)): 195 ×10^3 | Nb cells (×10^3) ([2]; 3 μM, cycle 15 (11 d)): 140 ×10^3 | Nb cells (×10^3) ([2]; 3 μM, cycle 16 (14 d)): 167 ×10^3 | Nb cells (×10^3) ([2]; 3 μM, cycle 17 (13 d)): 166 ×10^3 | Nb cells (×10^3) ([2]; 3 μM, cycle 18 (18 d)): 192 ×10^3 | Nb cells (×10^3) ([2]; 3 μM, cycle 19 (17 ds)): 198 ×10^3 | Nb cells (×10^3) ([2]; 3 μM, cycle 20 (14 d)): 145 ×10^3 | Replicative capac vs control ([2]; 3 μM, cycle 20 (14 d)): +33 | Nb cells (×10^3) ([2]; 3 μM, cycle 21 (22 d)): 154 ×10^3 | Replicative capac vs control ([2]; 3 μM, cycle 21 (22 d)): +64 | Nb cells (×10^3) ([2]; 3 μM, cycle 22 (20 d)): 157 ×10^3 | Replicative capac vs control ([2]; 3 μM, cycle 22 (20 d)): +134 | Nb cells (×10^3) ([2]; 3 μM, cycle 23 (36 d)): 204 ×10^3 | Replicative capac vs control ([2]; 3 μM, cycle 23 (36 d)): +99 | Nb cells (×10^3) ([2]; 3 μM, cycle 24 (28 d)): 115 ×10^3 | Replicative capac vs control ([2]; 3 μM, cycle 24 (28 d)): +79 | Nb cells (×10^3) ([2]; 3 μM, cycle 25 (77 d)): 95 ×10^3 | Replicative capac vs control ([2]; 3 μM, cycle 25 (77 d)): 82 | protective effect on enzymatic activity of catalase (catalase; 0.05 mM): +40% | protective effect on enzymatic activity of catalase (catalase; 0.1 mM): +45% | catalase activity (catalase; 0.05 mM): 125 UI/mg of protein | catalase activity (catalase; 0.1 mM): 130 UI/mg of protein | Hsp27: Protection vs. irradiated (%) (Hsp27; 0.05 mM): 50% | Hsp27: Protection vs. irradiated (%) (Hsp27; 0.1 mM): 75% | Hsp27: Protection vs. irradiated (%) (Hsp27; 0.1 mM, listed as GGA): 75% | Number of Hsp27 positive cells/cm (Hsp27; 0.05 mM): 530 cells/cm | Number of Hsp27 positive cells/cm (Hsp27; 0.1 mM): 400 cells/cm | capacities of divisions of the cells [3]: level higher compared to the control | % on NHEK re-colonization 24 hours after (NHEK; 5 Gγ): faster re-colonization | % on NHEK re-colonization 24 hours after (NHEK; 5 Gγ, listed as GGA): 80% | % on NHEK re-colonization 24 hours after (NHEK; 10 Gγ): 60% | % on NHEK re-colonization 24 hours after (NHEK; not irradiated): 62%

Reference: US20090214607A1, “Topical use of teprenone” (SEDERMA, priority 2005, published 2009)
